Structures can show the parent of a compound that is named as a salt.
Target: human Nav1.8 (Homo sapiens (Human), UniProt Q9Y5Y9)
Assay: QPatch 48 HTX voltage-clamp electrophysiology, half inactivation state (V1/2) protocol, HEK293-Nav1.8 cells
Assay type: cell-based
Settings: HEK293 cells expressing human Nav1.8, human Navβ1 and human TREK1, P2 current
Method: Human embryonic kidney 293 cells (HEK293) expressing human Nav1.8, human Navβ1 and human TREK1 (HEK293-Nav1.8) were grown in T150 cell culture flasks at 37° C., 5% CO2 incubator. HEK293-Nav1.8 were passaged every 2-3 days when confluency reached 80-90% in T150 cell culture flasks.
Pharmacological assessment of compounds of the invention was performed using the QPatch 48 HTX electrophysiological platform. HEK293-Nav1.8 cells were prepared on the day of use by removing culture media, washing in DPBS, adding Accutase (2 mL to cover the surface, aspirate 1 mL then 1-2 minutes at 37° C.) followed by addition of CHO-SFM II to stop the enzyme digestion and in order to obtain a suspension of 3×10^6 cell/mL.
Compounds of the invention were prepared in an extracellular solution of the following composition: NaCl (145 mM), KCl (4 mM), CaCl2) (2 mM), MgCl (2 mM), HEPES (1 mM), Glucose (10 mM), pH 7.4 with NaOH Osmolality 300 mOsM/L. An intracellular solution of the following composition was used: CsF (115 mM), CsCl (20 mM), NaCl (5 mM), EGTA (10 mM), HEPES (10 mM), Sucrose (20 mM), pH 7.2 with CsOH Osmolality 310 mOsm/L.
Utilizing the voltage-clamp mode in the QPatch 48 HTX system a half inactivation state voltage protocol (V1/2) was used to determine pharmacological activity of compounds of the invention at Nav1.8 ion channels. A V1/2 protocol was utilized with the following voltage steps: a holding voltage of −100 mV was established followed by a 20 ms voltage step to 0 mV (P1), followed by an inactivating voltage step at −46 mV for 8 seconds, followed by a step to −100 mV for 20 ms, before a 20 ms step to 0 mV (P2), then returned to the holding voltage of −100 mV. This voltage protocol was repeated at a frequency of every 15 seconds, the current magnitude was quantified at the P2 step throughout the recording. Inhibition of the measured current amplitude with compounds of the invention was analyzed by fitting a 4-6 points dose-response curve allowing determination of the fifty percent inhibition concentration (IC50). P2 currents were normalized according to measurements made at baseline (Baseline, vehicle only), after compound (Input, at each test concentration), and after positive reference compound (FullResponse, to achieve complete block), fit to the following equation: […]
To assess current run-down over the course of the experiment vehicle-only wells were utilized and the normalized current with vehicle-only (n.IVEH) was determined. To correct the compound response for run-down, the currents were corrected according to the following formula: […]
Compound inhibition was fitted to the following Hill Equation to estimate the half maximal inhibition concentration (IC50)
[formula] • where Y is the normalized run-down corrected inhibition relative to the vehicle control (equivalent to n.IRD_Correct), C the test compound concentration, IC50 the concentration of test compound to inhibit the sodium current by 50%, and h the Hill coefficient.

Sequence of human Nav1.8 (Q9Y5Y9 whole entry): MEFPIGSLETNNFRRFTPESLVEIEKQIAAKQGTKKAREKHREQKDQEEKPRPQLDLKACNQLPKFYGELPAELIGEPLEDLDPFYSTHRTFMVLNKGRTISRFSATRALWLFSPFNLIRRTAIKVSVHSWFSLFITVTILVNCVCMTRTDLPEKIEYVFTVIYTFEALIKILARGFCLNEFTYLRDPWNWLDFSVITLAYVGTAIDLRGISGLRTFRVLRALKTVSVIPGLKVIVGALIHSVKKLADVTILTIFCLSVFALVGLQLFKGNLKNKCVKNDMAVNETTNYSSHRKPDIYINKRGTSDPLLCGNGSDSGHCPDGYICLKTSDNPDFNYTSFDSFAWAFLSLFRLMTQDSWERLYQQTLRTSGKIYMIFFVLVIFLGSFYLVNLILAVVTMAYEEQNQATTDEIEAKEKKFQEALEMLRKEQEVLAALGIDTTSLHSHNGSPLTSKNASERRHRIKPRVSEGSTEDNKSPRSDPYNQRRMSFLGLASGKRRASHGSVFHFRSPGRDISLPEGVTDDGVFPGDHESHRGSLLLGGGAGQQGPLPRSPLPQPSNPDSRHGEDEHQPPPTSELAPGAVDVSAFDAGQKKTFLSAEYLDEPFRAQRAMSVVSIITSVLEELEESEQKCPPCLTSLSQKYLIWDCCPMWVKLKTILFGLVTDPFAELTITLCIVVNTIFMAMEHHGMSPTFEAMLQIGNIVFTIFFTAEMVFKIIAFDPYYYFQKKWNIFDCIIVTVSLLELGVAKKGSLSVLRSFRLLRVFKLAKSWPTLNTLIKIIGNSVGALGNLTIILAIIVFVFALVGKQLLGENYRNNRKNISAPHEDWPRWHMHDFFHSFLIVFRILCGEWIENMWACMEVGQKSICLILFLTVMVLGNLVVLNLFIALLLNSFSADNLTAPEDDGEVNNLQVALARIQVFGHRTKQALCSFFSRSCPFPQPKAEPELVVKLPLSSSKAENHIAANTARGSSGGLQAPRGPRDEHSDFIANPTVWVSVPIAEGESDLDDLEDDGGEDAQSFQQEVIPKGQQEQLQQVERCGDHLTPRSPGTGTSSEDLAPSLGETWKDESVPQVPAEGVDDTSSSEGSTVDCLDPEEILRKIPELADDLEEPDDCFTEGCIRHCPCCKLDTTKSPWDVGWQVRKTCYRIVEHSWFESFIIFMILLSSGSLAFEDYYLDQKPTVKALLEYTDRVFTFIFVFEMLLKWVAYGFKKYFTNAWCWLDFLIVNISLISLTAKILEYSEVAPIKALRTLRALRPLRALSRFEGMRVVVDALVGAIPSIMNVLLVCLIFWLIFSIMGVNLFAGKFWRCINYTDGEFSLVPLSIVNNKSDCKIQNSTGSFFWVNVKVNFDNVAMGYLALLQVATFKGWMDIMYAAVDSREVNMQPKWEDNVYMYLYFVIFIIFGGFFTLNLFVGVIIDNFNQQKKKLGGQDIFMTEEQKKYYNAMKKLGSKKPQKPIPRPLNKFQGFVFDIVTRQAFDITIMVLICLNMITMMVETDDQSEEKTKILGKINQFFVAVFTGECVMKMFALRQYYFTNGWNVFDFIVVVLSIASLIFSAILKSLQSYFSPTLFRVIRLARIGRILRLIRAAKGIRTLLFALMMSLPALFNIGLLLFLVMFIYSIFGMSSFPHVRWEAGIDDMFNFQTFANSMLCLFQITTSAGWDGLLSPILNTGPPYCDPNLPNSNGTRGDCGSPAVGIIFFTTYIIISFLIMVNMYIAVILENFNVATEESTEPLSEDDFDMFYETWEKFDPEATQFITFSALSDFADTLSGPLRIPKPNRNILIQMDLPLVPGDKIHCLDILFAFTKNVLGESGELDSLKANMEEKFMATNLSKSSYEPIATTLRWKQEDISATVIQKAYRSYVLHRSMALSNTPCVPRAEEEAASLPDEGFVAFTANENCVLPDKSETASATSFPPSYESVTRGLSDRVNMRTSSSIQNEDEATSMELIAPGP
Sequence of human Nav1.8 (Q07699 19-218 partner): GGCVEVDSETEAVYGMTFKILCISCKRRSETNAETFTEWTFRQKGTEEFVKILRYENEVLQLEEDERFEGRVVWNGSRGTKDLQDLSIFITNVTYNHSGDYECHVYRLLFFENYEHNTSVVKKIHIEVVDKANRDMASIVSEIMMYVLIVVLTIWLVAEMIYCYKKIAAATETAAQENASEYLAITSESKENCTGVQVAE

| Nav1.8, pIC50 | IC50 (read-out: Nav1.8, pIC50 (converted)) [nM] | Structure (SMILES) |
| --- | --- | --- |
| 7.3 | – | O=C1c2cc(C(F)(F)F)ccc2N2CN1c1ccc(=O)[nH]c1CCNCc1cc(F)ccc12 [Example 41, 8-Fluoro-2-(trifluoromethyl)-10,11,12,13-tetrahydro-19H-5,18-methanodibenzo[c,f]pyrido[3,2-f][1,5,9]triazacyclotridecine-15,19(14H)-dione] |
| 6.9 | – | O=C1c2cc(Cl)cnc2N2CN1c1ccc(=O)[nH]c1CCNCc1cc(F)ccc12 [Example 42, 2-Chloro-8-fluoro-10,11,12,13-tetrahydro-19H-5,18-methanodibenzo[c]dipyrido[2,3-f:3′,2′-j][1,5,9]triazacyclotridecine-15,19(14H)-dione] |
| 7.4 | – | O=C1c2cc(Cl)c(F)cc2N2CN1c1ccc(=O)[nH]c1CCNCc1cc(F)ccc12 [Example 43, 2-Chloro-3,8-difluoro-10,11,12,13-tetrahydro-19H-5,18-methanodibenzo[c,f]pyrido[3,2-f][1,5,9]triazacyclotridecine-15,19(14H)-dione] |
| 8.6 | – | O=C1c2cc(F)c(C(F)(F)F)cc2N2CN1c1ccc(=O)[nH]c1CCNCc1cc(F)ccc12 [Example 44, 2,8-Difluoro-3-(trifluoromethyl)-10,11,12,13-tetrahydro-19H-5,18-methanodibenzo[c,f]pyrido[3,2-i][1,5,9]triazacyclotridecine-15,19(14H)-dione] |
| 8 | – | Cl.O=C1c2cc(F)c(Cl)cc2N2CN1c1ccc(=O)[nH]c1CCNCc1cc(F)ccc12 [Example 46, 3-Chloro-2,8-difluoro-10,11,12,13-tetrahydro-19H-5,18-methanodibenzo[c,f]pyrido[3,2-j][1,5,9]triazacyclotridecine-15,19(14H)-dione, hydrochloride] |
| 8.2 | – | Cl.O=C1c2cc(F)c(Cl)cc2N2CN1c1ccc(=O)[nH]c1CCNCc1c2ccc(F)c1F [Example 49, 3-Chloro-2,8,9-trifluoro-10,11,12,13-tetrahydro-19H-5,18-methanodibenzo[c,f]pyrido[3,2-j][1,5,9]triazacyclotridecine-15,19(14H)-dione hydrochloride] |
| 8 | – | O=C1c2cc(F)c(Cl)cc2N2CN1c1ccc(=O)[nH]c1CCNCc1c2ccc(F)c1F [Example 50, 3-Chloro-2,8,9-trifluoro-10,11,12,13-tetrahydro-19H-5,18-methanodibenzo-[c,f]pyrido[3,2-j][1,5,9]triazacyclotridecine-15,19(14H)-dione] |
| 6.7 | – | Cl.O=C1c2cc(F)c(F)cc2N2CN1c1ccc(=O)[nH]c1CCNCc1cc(F)ccc12 [Example 53, 2,3,8-Trifluoro-10,11,12,13-tetrahydro-19H-5,18-methanodibenzo[c,f]pyrido[3,2-j][1,5,9]triazacyclotridecine-15,19(14H)-dione hydrochloride] |
| 6 | – | CNc1cc2c(cc1F)C(=O)N1CN2c2ccc(F)cc2CNCCc2[nH]c(=O)ccc21 [Example 54, 2,8-Difluoro-3-(methylamino)-10,11,12,13-tetrahydro-19H-5,18-methano-dibenzo[c,f]pyrido[3,2-j][1,5,9]triazacyclotridecine-15,19(14H)-dione] |
| 7.2 | – | N#Cc1cc2c(cc1Cl)C(=O)N1CN2c2ccc(F)cc2CNCCc2[nH]c(=O)ccc21 [Example 55, 2-Chloro-8-fluoro-15,19-dioxo-10,11,12,13,14,15-hexahydro-19H-5,18-methano-dibenzo[c,f]pyrido[3,2-j][1,5,9]triazacyclotridecine-3-carbonitrile] |
| 7.8 | – | Cl.O=C1c2cc(Cl)c(C(F)(F)F)cc2N2CN1c1ccc(=O)[nH]c1CCNCc1cc(F)ccc12 [Example 59, 2-Chloro-8-fluoro-3-(trifluoromethyl)-10,11,12,13-tetrahydro-19H-5,18-methanodibenzo[c,f]pyrido[3,2-j][1,5,9]triazacyclotridecine-15,19(14H)-dione hydrochloride] |
| 8.2 | – | Cl.O=C1c2cc(F)c(Br)cc2N2CN1c1ccc(=O)[nH]c1CCNCc1c2ccc(F)c1F [Example 62, 3-Bromo-2,8,9-trifluoro-10,11,12,13-tetrahydro-19H-5,18-methanodibenzo[c,f]pyrido[3,2-j][1,5,9]triazacyclotridecine-15,19(14H)-dione hydrochloride] |

Continued, molecule first:

| Structure (SMILES) | Nav1.8, pIC50 | IC50 (read-out: Nav1.8, pIC50 (converted)) [nM] |
| --- | --- | --- |
| O=C1c2cc(C(F)(F)F)ccc2N2CN1c1ccc(=O)[nH]c1NCCCc1c2ccc(F)c1F [Example 37, 8,9-Difluoro-2-(trifluoromethyl)-10,11,12,13-tetrahydro-19H-5,18-methanodibenzo[f,i]dipyrido[2,3,-b][1,4,8]triazacyclotridecine-15,19(14H)-dione] | 7.7 | – |
| O=C1c2cc(C(F)(F)F)ncc2N2CN1c1ccc(=O)[nH]c1NCCCc1c2ccc(F)c1F [Example 38, 8,9-Diluoro-2-(trifluoromethyl)-10,11,12,13-tetrahydro-19H-5,18-methanodibenzo[i]dipyrido[2,3,-b:4′,3′-f][1,4,8]triazacyclotridecine-15,19(14H)-dione] | 6.8 | – |
| O=C1c2cc(C(F)(F)F)ccc2N2CN1c1ccc(=O)[nH]c1NCCCc1cc(F)c(F)cc12 [Example 39, 7,8-Difluoro-2-(trifluoromethyl)-10,11,12,13-tetrahydro-19H-5,18-methanodibenzo[f,i]dipyrido[2,3,-b][1,4,8]triazacyclotridecine-15,19(14H)-dione] | 7.0 | – |
| O=C1c2cc(C(F)(F)F)ncc2N2CN1c1ccc(=O)[nH]c1CCCCc1cc(F)ccc12 [Example 40, 8-Fluoro-2-(trifluoromethyl)-10,11,12,13-tetrahydro-19H-5,18-methanobenzo[l]dipyrido[3,4-b:3′,2′-f][1,5]diazocyclotridecine-15,19(14H)-dione] | 6.0 | – |
| O=C1c2c(ccc(C(F)(F)F)c2F)N2CN1c1ccc(=O)[nH]c1CCNCc1cc(F)ccc12 [Example 45, 1,8-Difluoro-2-(trifluoromethyl)-10,11,12,13-tetrahydro-19H-5,18-methanodibenzo[c,f]pyrido[3,2-j][1,5,9]triazacyclotridecine-15,19(14H)-dione] | 6.9 | – |
| Cl.O=C1c2cc(F)c(C(F)(F)F)cc2N2CN1c1ccc(=O)[nH]c1CCNCc1c2ccc(F)c1F [Example 48, 2,8,9-Trifluoro-3-(trifluoromethyl)-10,11,12,13-tetrahydro-19H-5,18-methanodibenzo[c,f]pyrido[3,2-j][1,5,9]triazacyclotridecine-15,19(14H)-dione hydrochloride] | 8.1 | – |
| N#Cc1cc2c(cc1F)C(=O)N1CN2c2ccc(F)c(F)c2CNCCc2[nH]c(=O)ccc21 [Example 57, 2,8,9-Trifluoro-15,19-dioxo-10,11,12,13,14,15-hexahydro-19H-5,18-methano-dibenzo[c,f]pyrido[3,2-j][1,5,9]triazacyclotridecine-3-carbonitrile] | 7.4 | – |
| O=C1c2cc(F)c(C(F)(F)F)cc2N2CN1c1ccc(=O)[nH]c1CCNCc1c2ccc(F)c1Cl [Example 58, 9-Chloro-2,8-difluoro-3-(trifluoromethyl)-10,11,12,13-tetrahydro-19H-5,18-methano-dibenzo[c,f]pyrido[3,2-j][1,5,9]triazacyclotridecine-15,19(14H)-dione] | 8.9 | – |
| Cl.O=C1c2cc(Cl)c(C(F)(F)F)cc2N2CN1c1ccc(=O)[nH]c1CCNCc1c2ccc(F)c1F [Example 60, 2-Chloro-8,9-difluoro-3-(trifluoromethyl)-10,11,12,13-tetrahydro-19H-5,18-methanodibenzo[c,f]pyrido[3,2-j][1,5,9]triazacyclotridecine-15,19(14H)-dione hydrochloride] | 8.8 | – |
| Cc1c(F)ccc2c1CNCCc1[nH]c(=O)ccc1N1CN2c2cc(C(F)(F)F)c(F)cc2C1=O [Example 61, 2,8-Difluoro-9-methyl-3-(trifluoromethyl)-10,11,12,13-tetrahydro-19H-5,18-methanodibenzo[c,f]pyrido[3,2-j][1,5,9]triazacyclotridecine-15,19(14H)-dione hydrochloride] | – | 3.98 |

Reference: patent US20250368647A1, “NITROGEN CONTAINING CONDENSED 2,3-DIHYDROQUINAZOLINONE COMPOUNDS AS NAV1.8 INHIBITORS” (GLAXOSMITHKLINE INTELLECTUAL PROPERTY DEVELOPMENT LIMITED, priority 2022, published 2025)
